Measurements from patent publication US20250195502A1, “APPLICATION OF TETRACYCLIC COMPOUND IN TREATMENT OF TUMORS” (SHANGHAI SHIJIANG BIOTECHNOLOGY CO., LTD, priority 2022, published 2025).

These compounds were tested on D341 Med (cerebellar medulloblastoma cell) (assay: Cell viability assay (Promega CellTiter-Glo), inhibitory effect on D341 Med). Settings: Homo sapiens, 72 h, 3 days of culture, read-out: inhibitory effect on brain cell line D341 Med (IC50).
Format: cell-based
Procedure: (§1) The inhibitory effect of the compounds prepared in the Examples of the present invention on various brain tumor cell lines was detected using cell viability assay reagent.
(§2) Cell viability was detected using the Promega CellTiter-Glo kit, cell viability was determined by directly measuring intracellular ATP content. In the experiment, the IC50 value of the compounds prepared in the Examples of the present invention on various brain tumor cell lines was detected.
(§3) Each tumor cell was cultured in relevant medium. After cell passage, the gradient diluted compounds prepared in the Examples of the present invention was added. After 3 days of culture, the relevant IC50 (50% inhibiting concentration) was measured. The name, source and culture conditions of each tumor cell line were as follows:
Cell line D341 Med (ATCC, No. HTB-187) was cultured in 20% fetal bovine serum-containing EMEM medium (+P/S).
`COc1ccc2cc3[n+](cc2c1OCCCCOc1ccccc1)CCc1cc2c(cc1-3)OCO2` [compound AB31718] gave an IC50 of 180 nM.

These compounds were tested on NCI-H82 (human small cell lung cancer cell) (assay: Cell viability assay (Promega CellTiter-Glo), inhibitory effect on NCI-H82). Settings: 72 h, 3 days of culture.
Format: cell-based
Procedure: (§4) The inhibitory effect of the compounds prepared in the Examples of the present invention on various tumor cell lines was detected using cell viability assay reagent.
(§5) Cell viability was detected using the Promega CellTiter-Glo kit, cell viability was determined by directly measuring intracellular ATP content. In the experiment, the ICso value of the compounds prepared in the Examples of the present invention on various tumor cell lines was detected.
as §3
Cell line NCI-H82 (ATCC, No. HTB-175) was cultured in 10% fetal bovine serum-containing RPMI1640 medium (+P/S).
`COc1ccc2cc3[n+](cc2c1OCCCCOc1ccccc1)CCc1cc2c(cc1-3)OCO2` [compound AB31718] gave an IC50 of 290 nM.

What follows are compounds tested on SW48 (human colon adenocarcinoma cell) (assay: Cell viability assay (Promega CellTiter-Glo), inhibitory effect on SW48). Settings: 72 h, 3 days of culture.
Format: cell-based
Procedure: as §4, §5, §3
Cell line SW48 (ATCC, No. CCL-231) was cultured in 10% fetal bovine serum-containing Leibovitz's L-15 medium (+P/S).
For `COc1ccc2cc3[n+](cc2c1OCCCCOc1ccccc1)CCc1cc2c(cc1-3)OCO2` [compound AB31718], the IC50 was 250 nM.

The compounds below were run on MDA-MB-453 (breast cancer cell) (assay: Cell viability assay (Promega CellTiter-Glo), inhibitory effect on MDA-MB-453). Settings: Homo sapiens, 72 h, 3 days of culture.
Format: cell-based
Procedure: as §4, §5, §3
Cell line MDA-MB-453 (ATCC, No. HTB-131) was cultured in 10% fetal bovine serum-containing Leibovitz's L-15 medium (+P/S).
With `COc1ccc2cc3[n+](cc2c1OCCCCOc1ccccc1)CCc1cc2c(cc1-3)OCO2` [compound AB31718] the IC50 was 90 nM.

The compounds below were run on NB-1 (brain neuroblastoma cell) (assay: Cell viability assay (Promega CellTiter-Glo), inhibitory effect on NB-1). Settings: Homo sapiens, 72 h, 3 days of culture, read-out: inhibitory effect on brain cell line NB-1 (IC50).
Format: cell-based
Procedure: as §1, §2, §3
Cell line NB-1 (ATCC, No. HTB-131) was cultured in 10% fetal bovine serum-containing Leibovitz's L-15 medium (+P/S).
With `COc1ccc2cc3[n+](cc2c1OCCCCOc1ccccc1)CCc1cc2c(cc1-3)OCO2` [compound AB31718] the IC50 was 20 nM.

The compounds below were run on Con-NCI-H82 cell (NCI-H82 transfected with empty virus vector) (assay: Cell viability assay (Promega CellTiter-Glo), inhibitory effect on Con-NCI-H82 cell). Settings: Homo sapiens; NCI-H82 transfected with empty virus vector (control); CellTiter-Glo; read-out: inhibitory effect on Con-NCI-H82 (IC50).
Format: cell-based
Procedure: (§6) The role of expression level of NNMT gene and DNMT1 in the sensitivity of NCI-H82 cell to the compounds prepared in the Examples of the present invention was determined
(§7) The expression of NNMT protein in NCI-H82 cell was overexpressed by inserting the NNMT gene into NCI-H82 cell using a viral vector, and the NNMT protein-overexpressing NCI-H82 cell (ov-NNMT NCI-H82 cell) was obtained. The expression of DNMT1 in NCI-H82 cell was knocked down transfecting (the by shRNA nucleotide sequence of shRNA was […] TTTTTG (SEQ ID No: 2)) using a viral vector, and the NCI-H82 cell with low expression of DNMT1 protein (sh-DNMT1 NCI-H82 cell) was obtained. The control NCI-H82 cell (Con-NCI-H82 cell) was obtained by transfecting NCI-H82 cell with empty virus vector without carrying NNMT gene and shRNA. The expressing content of NNMT protein and DNMT1 protein in the Con-NCI-H82 cell, the expressing content of NNMT protein in the ov-NNMT NCI-H82 cell, and the expressing content of DNMT1 protein in the sh-DNMT1 NCI-H82 cell were detected using Western Blot assay (as shown in FIG. 15 and FIG. 16), it could be seen from FIG. 15 and FIG. 16 that the NNMT protein was overexpressed in the ov-NNMT NCI-H82 cell and the expression of DNMT1 protein was knocked down (i.e, low expression) in the sh-DNMT1 NCI-H82 cell compared with the expression level of NNMT protein and DNMT protein in the Con-NCI-H82 cell.
Compound `COc1ccc2cc3[n+](cc2c1OCCCCOc1ccccc1)CCc1cc2c(cc1-3)OCO2` [compound AB31718] has an IC50 of 290 nM.

The compounds below were run on sh-DNMT1 NCI-H82 cell (DNMT1 knocked down NCI-H82) (assay: Cell viability assay (Promega CellTiter-Glo), inhibitory effect on sh-DNMT1 NCI-H82 cell). Settings: Homo sapiens, NCI-H82 with DNMT1 knocked down by shRNA.
Format: cell-based
Procedure: as §6, §7
In the case of `COc1ccc2cc3[n+](cc2c1OCCCCOc1ccccc1)CCc1cc2c(cc1-3)OCO2` [compound AB31718], the IC50 is reported as 1360 nM.

The compounds below were run on SF126 (human glioblastoma multiforme cell) (assay: Cell viability assay (Promega CellTiter-Glo), inhibitory effect on SF126). Settings: 72 h, SF-126, 3 days of culture, Table 3, read-out: inhibitory effect on SF-126 (IC50).
Format: cell-based
Procedure: as §4, §5, §3
Cell line SF126 (JCRB, No. IFO50286) was cultured in 10% fetal bovine serum-containing EMEM medium (+P/S).
as §1, §2
`COc1ccc2cc3[n+](cc2c1OCCCCOc1ccccc1)CCc1cc2c(cc1-3)OCO2` [compound AB31718] was tested, and the IC50 was 4250 nM.

Same assay, conditions: SF-126, 72 h, SF126, 3 days of culture, Table 4, read-out: inhibitory effect on brain cell line SF126 (IC50)
With `COc1ccc2cc3[n+](cc2c1OCCCCOc1ccccc1)CCc1cc2c(cc1-3)OCO2` [compound AB31718] the IC50 was 4250 nM.

The compounds below were run on CFPAC-1 (human pancreatic cancer cell) (assay: Cell viability assay (Promega CellTiter-Glo), inhibitory effect on CFPAC-1). Settings: 72 h, 3 days of culture.
Format: cell-based
Procedure: as §4, §5, §3
Cell line CFPAC-1 (ATCC, No. CRL-1918) was cultured in 10% fetal bovine serum-containing IMDM medium (+P/S).
`COc1ccc2cc3[n+](cc2c1OCCCCOc1ccccc1)CCc1cc2c(cc1-3)OCO2` [compound AB31718] showed an IC50 of 5290 nM.

Each compound was assayed on GB-1 (human brain glioblastoma cell) (assay: Cell viability assay (Promega CellTiter-Glo), inhibitory effect on GB-1). Settings: 72 h, 3 days of culture, Table 3, read-out: inhibitory effect on GB-1 (IC50).
Format: cell-based
Procedure: as §4, §5, §3
Cell line GB-1 (JCRB, No. IFO50489) was cultured in 10% fetal bovine serum-containing DMEM medium (+P/S).
as §1, §2
Compound `COc1ccc2cc3[n+](cc2c1OCCCCOc1ccccc1)CCc1cc2c(cc1-3)OCO2` [compound AB31718] has an IC50 of 3410 nM.

Same assay, conditions: 72 h, 3 days of culture, Table 4, read-out: inhibitory effect on brain cell line GB-1 (IC50)
Work on `COc1ccc2cc3[n+](cc2c1OCCCCOc1ccccc1)CCc1cc2c(cc1-3)OCO2` [compound AB31718] yielded an IC50 of 3410 nM.

The compounds below were run on 786-O (clear cell renal cell adenocarcinoma cell) (assay: Cell viability assay (Promega CellTiter-Glo), inhibitory effect on 786-O). Settings: Homo sapiens, 786-0, 72 h, 3 days of culture.
Format: cell-based
Procedure: as §4, §5, §3
Cell line 786-0 (ATCC, No. CRL-1932) was cultured in 10% fetal bovine serum-containing RPMI1640 medium (+P/S).
Compound `COc1ccc2cc3[n+](cc2c1OCCCCOc1ccccc1)CCc1cc2c(cc1-3)OCO2` [compound AB31718] has an IC50 of 2690 nM.

Each compound was assayed on G-401 (human renal carcinoma Wilms cell) (assay: Cell viability assay (Promega CellTiter-Glo), inhibitory effect on G-401). Settings: 72 h, 3 days of culture.
Format: cell-based
Procedure: as §4, §5, §3
Cell line G-401 (ATCC, No. CRL-1441) was cultured in 10% fetal bovine serum-containing McCoy's 5a medium (+P/S).
`COc1ccc2cc3[n+](cc2c1OCCCCOc1ccccc1)CCc1cc2c(cc1-3)OCO2` [compound AB31718] showed an IC50 of 370 nM.

The compounds below were run on Kelly (brain neuroblastoma cell) (assay: Cell viability assay (Promega CellTiter-Glo), inhibitory effect on Kelly). Settings: Homo sapiens, 72 h, 3 days of culture, read-out: inhibitory effect on brain cell line Kelly (IC50).
Format: cell-based
Procedure: as §1, §2, §3
Cell line Kelly (ECACC, No. 92110411) was cultured in 10% fetal bovine serum and 2 mM glutamine-containing RPMI1640 medium.
Work on `COc1ccc2cc3[n+](cc2c1OCCCCOc1ccccc1)CCc1cc2c(cc1-3)OCO2` [compound AB31718] yielded an IC50 of 660 nM.

These compounds were tested on ov-NNMT NCI-H82 cell (NNMT protein-overexpressing NCI-H82) (assay: Cell viability assay (Promega CellTiter-Glo), inhibitory effect on ov-NNMT NCI-H82 cell). Settings: Homo sapiens.
Format: cell-based
Procedure: as §6, §7
Work on `COc1ccc2cc3[n+](cc2c1OCCCCOc1ccccc1)CCc1cc2c(cc1-3)OCO2` [compound AB31718] yielded an IC50 of 680 nM.
